# In paper PMC5829251, “NAD^+ analog reveals PARP-1 substrate-blocking mechanism and allosteric communication from catalytic center to DNA-binding domains” (Nature Communications, 2018):
# Where “and” joins values, the source holds several entries; their conditions need not be identical. Equal values may be shown once.
# Assays:
# [1] = biological target: T1, PARP-1 (Homo sapiens, UniProt P09874); test: SDS-PAGE PARP-1 activity assay (DNA-dependent automodification); type: biochemical; details: 1 μM DNA, 1 μM protein, 50 μM NAD+; concentration series
# T1 construct: Full-length PARP-1 WT (residues 1–1014) was cloned in pET28 vector; made in house; host or cells: E. coli
# T1 sequence (P09874 whole entry, the tested form may be a part): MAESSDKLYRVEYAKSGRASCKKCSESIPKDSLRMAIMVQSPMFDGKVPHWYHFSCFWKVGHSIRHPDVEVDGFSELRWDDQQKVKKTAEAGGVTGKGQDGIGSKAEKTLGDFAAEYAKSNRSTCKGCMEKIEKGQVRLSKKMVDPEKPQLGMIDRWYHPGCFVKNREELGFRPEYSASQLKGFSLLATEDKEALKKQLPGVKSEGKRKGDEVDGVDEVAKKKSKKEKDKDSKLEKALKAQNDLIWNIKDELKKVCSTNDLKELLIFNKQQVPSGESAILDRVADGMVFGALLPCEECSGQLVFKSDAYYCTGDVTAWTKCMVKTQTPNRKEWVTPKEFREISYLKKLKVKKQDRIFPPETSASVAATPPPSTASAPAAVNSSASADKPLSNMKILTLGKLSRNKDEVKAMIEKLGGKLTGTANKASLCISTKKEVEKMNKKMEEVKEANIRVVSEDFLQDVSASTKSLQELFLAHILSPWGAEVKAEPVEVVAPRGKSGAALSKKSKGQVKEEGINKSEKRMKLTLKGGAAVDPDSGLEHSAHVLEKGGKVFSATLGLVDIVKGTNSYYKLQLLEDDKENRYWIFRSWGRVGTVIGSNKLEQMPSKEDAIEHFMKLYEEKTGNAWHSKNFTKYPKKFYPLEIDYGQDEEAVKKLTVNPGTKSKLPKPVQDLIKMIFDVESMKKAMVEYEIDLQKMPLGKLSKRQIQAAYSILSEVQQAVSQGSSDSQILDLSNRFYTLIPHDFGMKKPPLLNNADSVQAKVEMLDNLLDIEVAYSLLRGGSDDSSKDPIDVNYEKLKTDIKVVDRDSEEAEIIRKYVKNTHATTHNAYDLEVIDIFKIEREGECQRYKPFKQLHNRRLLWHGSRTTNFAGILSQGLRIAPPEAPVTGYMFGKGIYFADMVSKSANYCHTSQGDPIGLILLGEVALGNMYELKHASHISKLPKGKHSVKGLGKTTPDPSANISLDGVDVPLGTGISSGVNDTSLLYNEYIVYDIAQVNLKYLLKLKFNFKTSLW
# Method: The SDS-PAGE activity assay was performed as described[28] using 1 µM protein, 1 μM DNA (18 bp oligonucleotide), 50 µM NAD^+, and various concentrations of BAD and carba-NAD^+ as indicated. Reactions were incubated for 5 min before quenching with SDS-PAGE loading buffer.
# [2] = biological target: T2, full-length PARP-1 (Homo sapiens, UniProt P09874); test: Colorimetric assay of full-length PARP-1 DNA-dependent activity; type: biochemical; details: for IC50: 20 nM PARP-1, 40 nM DNA (18-bp duplex), 50 μM NAD+ (99:1 NAD+:bio-NAD+)
# T2 construct: Full-length PARP-1 WT (residues 1–1014) was cloned in pET28 vector; made in house; host or cells: E. coli
# T2 sequence (P09874 whole entry, the tested form may be a part): as above
# Method: The colorimetric assay was performed as described, [28] using 20 nM of protein and 40 nM DNA (18-bp duplex). A mixture of NAD^+ and biotinylated NAD^+ (bio-NAD^+) was used at a 99:1 ratio and a final concentration of 50 µM. Reactions were allowed to proceed for 5 min before quenching. Three independent experiments were performed.
# [3] = biological target: T3, full-length PARP-1 WT (Homo sapiens, UniProt P09874); test: ITC, full-length PARP-1 WT with or without DNA; type: binding; details: for KD / Kd: compound 525 μM titrated, 25°C
# T3 construct: Full-length PARP-1 WT (residues 1–1014) was cloned in pET28 vector; made in house; host or cells: E. coli
# T3 sequence (P09874 whole entry, the tested form may be a part): as above
# Method: ITC experiments were performed using a MicroCal iTC200 calorimeter (GE Healthcare). BAD or benzamide at 525 μM was titrated into PARP-1 protein (50 μM for CAT WT and CAT ΔHD, 40 μM for full-length PARP-1 WT and mutants) or PARP-1 protein with DNA (20–40 μM) at 25°C. Prior to the experiment, proteins and DNA were dialyzed in 25 mM Hepes pH 8.0, 150 mM NaCl, 1 mM EDTA, and 0.1 mM TCEP. BAD and benzamide were diluted in the dialysis buffer. PARP-1/DNA complexes were assembled and incubated at RT for 30 min prior to performing the experiment. Experiments were typically designed as follows: a first injection of 0.2 μL was followed by 16 injections of 2.5 μL with a spacing of 100 s between injections. Excess heat upon each injection was integrated using an automatically adjusted base line and derived values corrected by heat of dilution. Data analysis and curve fitting were conducted using Origin 7 software. The ITC experiment for each sample was performed either two (PARP-1 WT with benzamide, PARP-1 E763/D766/D770A with benzamide, PARP-1 D766/D770A with BAD) or three times (the remaining eight samples). Table 2 lists the average KD value and stoichiometry (n) for the replicates, and the reported errors are the calculated standard deviations (representing the range of values for experiments repeated two times). We anticipate that the sub-stoichiometric n values for CAT constructs results from either the active fraction being < 100%, or the protein concentration determination being not entirely accurate. The analysis of full-length PARP-1 yielded n values around the expected value of 1.
# [4] = biological target: T1, PARP-1; test: HXMS analysis of PARP-1 dynamics; details: for HX of an ART active site peptide (a.a. 901–917): 10^4 s time point, PARP-1 alone or in complex with DNA
# Method: Deuterium on-exchange was carried out at RT by mixing 5 µL of each sample (8 µM concentration) with 15 µL of deuterium on-exchange buffer (10 mM HEPES, pD 7.0, 150 mM NaCl, in D2O) yielding a final D2O concentration of 75%. pD values for deuterium-based buffers were calculated as pD = pH + 0.41[38]. Upon mixing with on-exchange buffer, the amide protons will be replaced over time with deuterons yielding an increased peptide mass. To quench the deuterium exchange reaction, the sample (20 µl) was mixed with 30 µl of ice-cold quench buffer (1.66 M guanidine hydrochloride, 10% glycerol, and 0.8% formic acid, for a final pH of 2.4–2.5) and rapidly frozen in liquid nitrogen. For the MS analysis, each sample (50 µL) was melted on ice and loaded onto an in-house packed pepsin column for digestion. Pepsin (Sigma) was coupled to POROS 20 AL support (Applied Biosystems), and the immobilized pepsin was packed into a column housing (2 mm × 2 cm, Upchurch). Pepsin-digested peptides were captured on TARGA C8 5 µm Piccolo HPLC column (1.0 × 5.0 mm, Higgins Analytical) and eluted through an analytical C18 HPLC column (0.3 × 75 mm, Agilent) by a shaped 12–100% buffer B gradient at 6 µL per min (Buffer A: 0.1% formic acid; Buffer B: 0.1% formic acid, 99.9% acetonitrile). The effluent was electrosprayed into the mass spectrometer. Non-deuterated (ND) PARP-1 samples were prepared in 10 mM HEPES, pH 7.0, 150 mM NaCl buffer, and mixed with the quench buffer to mimic the samples from on-exchange reaction. Peptides of ND samples were analyzed in tandem MS (LTQ Orbitrap XL, Thermo Fisher Scientific). We analyzed MS/MS data collected from these samples to identify potential PARP-1 peptides using SEQUEST (Bioworks v3.3.1, Thermo Fisher Scientific) with a peptide tolerance of 8 ppm and a fragment tolerance of 0.1 AMU. Deuterated samples were then analyzed on an Exactive Plus EMR-Orbritrap (Thermo Fisher Scientific). A MATLAB based program, ExMS[39] was used for HXMS data processing. […] The level of deuteration of individual peptides was measured by comparing them to the ND sample. […] For each peptide, we compare the extent of deuteration as measured in the FD sample to the theoretical maximal deuteration (i.e., if no back-exchange occurs); the median extent of back-exchange in our datasets is only 15%.
# Peptide plotting and calculations were performed in MATLAB. […] For comparing two different HXMS datasets, we plot the percent difference of each peptide, which is calculated by subtracting the percent deuteration of one sample from that of another, and plotted according to the color legend in stepwise increments (as in Fig. 5b). […]
Compound,concentration at which inhibition of DNA-dependent PARP-1 automodification activity starts [1],IC50 [2],"KD ([3]; FL WT 40 μM, without DNA)",n (stoichiometry) ([3]; FL WT with DNA),"Kd ([3]; FL WT with DNA (40 μM, 8 bp-duplex))","HX in peptides localized to HD helices αB and αF ([4]; 10^2 s time point, PARP-1 bound to a DNA strand break)",HX of an ART active site peptide (a.a. 901–917) [4],"HX in regions outside of the CAT (domain-domain and domain-DNA interfaces) ([4]; PARP-1 in complex with DNA, not in the absence of DNA)","inhibition of DNA damage-dependent activity of full-length PARP-1 ([2]; 20 nM PARP-1, 40 nM DNA, 50 μM NAD+)","Kd ([3]; FL WT 40 μM, without DNA)","n (stoichiometry) ([3]; FL WT, without DNA)"
"NC(=O)c1cccc(C2OC(COP(=O)(O)OP(=O)(O)OCC3OC(n4cnc5c(N)ncnc54)C(O)C3O)C(O)C2O)c1 (centres unmarked) [BAD, benzamide adenine dinucleotide]",50 µM,8.6 µM and 8.63 µM,no evidence of BAD binding,1.11 + /− 0.29,1.8 µM and 1.81 µM,increased HX,only observed with PARP-1 in complex with DNA,decrease in HX,–,–,–
NC(=O)c1ccccc1 [benzamide],–,4.6 µM and 4.62 µM,bound to benzamide in the absence of DNA,–,–,–,decreased HX in the same ART peptide for both PARP-1 alone and PARP-1 in complex with DNA,–,inhibits to a similar extent as the entire BAD molecule,2.32 µM,0.88 + /− 0.01
